Measured values taken from PMC11864979, “First-in-class ultralong-target-residence-time p38α inhibitors as a mitosis-targeted therapy for colorectal cancer” (Nature Cancer, 2025).
Like-named read-outs stand apart in the source and are kept apart here.

What was measured:
Assay in all cases: selectivity profiling in a panel of 340 wild-type kinases (Reaction Biology Europe)
Format in all cases: binding
340 wild-type kinases [1] = target: T1, 340 wild-type kinases (Homo sapiens, UniProt Q07002)
T1 construct: purchased Reaction Biology Europe

340 wild-type kinases [2] = target: T2, 340 wild-type kinases (Homo sapiens, UniProt Q02156)
T2 construct: purchased Reaction Biology Europe
T2 sequence (Q02156 1-737): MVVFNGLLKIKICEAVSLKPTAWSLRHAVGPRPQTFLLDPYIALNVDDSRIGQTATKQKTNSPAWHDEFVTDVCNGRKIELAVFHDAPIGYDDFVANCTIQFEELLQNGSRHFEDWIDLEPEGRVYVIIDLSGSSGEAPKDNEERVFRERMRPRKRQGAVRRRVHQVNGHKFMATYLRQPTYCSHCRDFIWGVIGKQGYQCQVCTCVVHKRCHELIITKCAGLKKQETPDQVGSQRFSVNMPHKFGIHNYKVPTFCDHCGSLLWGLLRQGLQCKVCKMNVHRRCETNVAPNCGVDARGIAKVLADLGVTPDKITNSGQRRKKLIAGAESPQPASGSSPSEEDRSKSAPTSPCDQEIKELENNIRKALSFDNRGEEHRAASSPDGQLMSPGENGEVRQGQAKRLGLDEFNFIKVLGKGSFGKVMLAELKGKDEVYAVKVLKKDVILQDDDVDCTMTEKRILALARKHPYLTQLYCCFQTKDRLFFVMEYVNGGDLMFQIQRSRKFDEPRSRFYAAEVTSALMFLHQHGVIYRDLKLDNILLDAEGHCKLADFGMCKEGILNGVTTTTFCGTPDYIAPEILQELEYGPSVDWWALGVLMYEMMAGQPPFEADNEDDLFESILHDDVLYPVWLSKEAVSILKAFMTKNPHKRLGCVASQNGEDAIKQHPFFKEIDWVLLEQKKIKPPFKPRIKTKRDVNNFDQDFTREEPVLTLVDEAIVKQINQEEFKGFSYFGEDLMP

340 wild-type kinases [3] = target: T3, 340 wild-type kinases (Homo sapiens, UniProt Q8N4C8)
T3 construct: purchased Reaction Biology Europe

340 wild-type kinases [4] = target: T4, 340 wild-type kinases (Homo sapiens, UniProt Q5TCX8)
T4 construct: purchased Reaction Biology Europe

340 wild-type kinases [5] = target: T5, 340 wild-type kinases (Homo sapiens, UniProt Q9P286)
T5 construct: purchased Reaction Biology Europe

340 wild-type kinases [6] = target: T6, 340 wild-type kinases (Homo sapiens, UniProt P07333)
T6 construct: purchased Reaction Biology Europe

340 wild-type kinases [7] = target: T7, 340 wild-type kinases (Homo sapiens, UniProt Q16513)
T7 construct: purchased Reaction Biology Europe

340 wild-type kinases [8] = target: T8, 340 wild-type kinases (Homo sapiens, UniProt P53779)
T8 construct: purchased Reaction Biology Europe

340 wild-type kinases [9] = target: T9, 340 wild-type kinases (Homo sapiens, UniProt O15264)
T9 construct: purchased Reaction Biology Europe
T9 sequence (O15264 1-365): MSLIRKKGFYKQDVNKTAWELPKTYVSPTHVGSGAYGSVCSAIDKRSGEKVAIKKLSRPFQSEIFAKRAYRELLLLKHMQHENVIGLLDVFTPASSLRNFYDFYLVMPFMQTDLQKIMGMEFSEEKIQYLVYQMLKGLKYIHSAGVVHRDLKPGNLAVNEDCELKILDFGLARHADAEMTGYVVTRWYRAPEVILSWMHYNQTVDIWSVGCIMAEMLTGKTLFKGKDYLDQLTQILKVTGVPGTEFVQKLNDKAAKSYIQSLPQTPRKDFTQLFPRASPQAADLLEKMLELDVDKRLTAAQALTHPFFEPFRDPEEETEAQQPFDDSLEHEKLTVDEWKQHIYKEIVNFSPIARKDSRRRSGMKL

340 wild-type kinases [10] = target: T10, 340 wild-type kinases (Homo sapiens, UniProt P00533)
T10 construct: purchased Reaction Biology Europe

340 wild-type kinases [11] = target: T11, 340 wild-type kinases (Homo sapiens, UniProt Q9UQM7)
T11 construct: purchased Reaction Biology Europe

340 wild-type kinases [12] = target: T12, 340 wild-type kinases (Homo sapiens, UniProt P28482)
T12 construct: purchased Reaction Biology Europe

340 wild-type kinases [13] = target: T13, 340 wild-type kinases (Homo sapiens, UniProt P09769)
T13 construct: purchased Reaction Biology Europe

340 wild-type kinases [14] = target: T14, 340 wild-type kinases (Homo sapiens, UniProt P45983)
T14 construct: purchased Reaction Biology Europe
T14 sequence (P45983 whole entry): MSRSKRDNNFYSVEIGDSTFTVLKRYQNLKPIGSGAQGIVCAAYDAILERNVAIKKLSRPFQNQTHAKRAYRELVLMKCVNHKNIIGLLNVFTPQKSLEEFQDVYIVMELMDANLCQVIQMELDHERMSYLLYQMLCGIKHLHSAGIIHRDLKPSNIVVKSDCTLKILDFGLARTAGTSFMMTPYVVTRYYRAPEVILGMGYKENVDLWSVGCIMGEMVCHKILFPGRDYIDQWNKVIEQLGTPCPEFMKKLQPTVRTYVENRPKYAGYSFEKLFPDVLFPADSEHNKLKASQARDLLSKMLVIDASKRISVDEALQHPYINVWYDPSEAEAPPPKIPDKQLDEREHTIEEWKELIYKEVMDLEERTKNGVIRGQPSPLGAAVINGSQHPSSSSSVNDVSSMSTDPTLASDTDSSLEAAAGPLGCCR

T4 sequence (Q5TCX8 whole entry): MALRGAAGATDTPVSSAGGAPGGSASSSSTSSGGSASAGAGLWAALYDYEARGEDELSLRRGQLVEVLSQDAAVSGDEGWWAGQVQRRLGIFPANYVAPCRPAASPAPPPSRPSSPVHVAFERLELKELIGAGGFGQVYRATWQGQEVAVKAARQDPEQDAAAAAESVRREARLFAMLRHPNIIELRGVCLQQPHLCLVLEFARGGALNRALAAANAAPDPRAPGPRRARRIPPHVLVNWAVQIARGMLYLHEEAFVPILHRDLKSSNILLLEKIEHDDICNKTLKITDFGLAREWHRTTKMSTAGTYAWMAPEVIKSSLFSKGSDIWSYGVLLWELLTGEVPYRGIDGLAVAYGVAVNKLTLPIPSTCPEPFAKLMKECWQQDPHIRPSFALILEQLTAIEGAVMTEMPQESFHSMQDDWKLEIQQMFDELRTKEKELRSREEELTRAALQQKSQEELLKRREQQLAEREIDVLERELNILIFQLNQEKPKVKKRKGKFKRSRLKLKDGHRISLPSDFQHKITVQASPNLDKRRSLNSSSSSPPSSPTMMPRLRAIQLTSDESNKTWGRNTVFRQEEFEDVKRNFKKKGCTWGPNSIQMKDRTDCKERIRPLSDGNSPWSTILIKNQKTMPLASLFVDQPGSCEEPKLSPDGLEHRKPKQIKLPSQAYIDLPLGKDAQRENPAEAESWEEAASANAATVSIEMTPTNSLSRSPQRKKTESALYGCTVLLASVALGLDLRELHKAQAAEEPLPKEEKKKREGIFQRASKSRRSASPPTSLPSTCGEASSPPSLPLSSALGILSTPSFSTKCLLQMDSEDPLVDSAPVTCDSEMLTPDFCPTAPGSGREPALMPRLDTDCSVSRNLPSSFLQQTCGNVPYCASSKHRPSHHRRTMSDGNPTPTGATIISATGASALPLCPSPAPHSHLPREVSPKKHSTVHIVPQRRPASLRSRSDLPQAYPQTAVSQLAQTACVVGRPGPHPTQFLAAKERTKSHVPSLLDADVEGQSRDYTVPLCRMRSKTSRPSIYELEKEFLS
T7 sequence (Q16513 whole entry): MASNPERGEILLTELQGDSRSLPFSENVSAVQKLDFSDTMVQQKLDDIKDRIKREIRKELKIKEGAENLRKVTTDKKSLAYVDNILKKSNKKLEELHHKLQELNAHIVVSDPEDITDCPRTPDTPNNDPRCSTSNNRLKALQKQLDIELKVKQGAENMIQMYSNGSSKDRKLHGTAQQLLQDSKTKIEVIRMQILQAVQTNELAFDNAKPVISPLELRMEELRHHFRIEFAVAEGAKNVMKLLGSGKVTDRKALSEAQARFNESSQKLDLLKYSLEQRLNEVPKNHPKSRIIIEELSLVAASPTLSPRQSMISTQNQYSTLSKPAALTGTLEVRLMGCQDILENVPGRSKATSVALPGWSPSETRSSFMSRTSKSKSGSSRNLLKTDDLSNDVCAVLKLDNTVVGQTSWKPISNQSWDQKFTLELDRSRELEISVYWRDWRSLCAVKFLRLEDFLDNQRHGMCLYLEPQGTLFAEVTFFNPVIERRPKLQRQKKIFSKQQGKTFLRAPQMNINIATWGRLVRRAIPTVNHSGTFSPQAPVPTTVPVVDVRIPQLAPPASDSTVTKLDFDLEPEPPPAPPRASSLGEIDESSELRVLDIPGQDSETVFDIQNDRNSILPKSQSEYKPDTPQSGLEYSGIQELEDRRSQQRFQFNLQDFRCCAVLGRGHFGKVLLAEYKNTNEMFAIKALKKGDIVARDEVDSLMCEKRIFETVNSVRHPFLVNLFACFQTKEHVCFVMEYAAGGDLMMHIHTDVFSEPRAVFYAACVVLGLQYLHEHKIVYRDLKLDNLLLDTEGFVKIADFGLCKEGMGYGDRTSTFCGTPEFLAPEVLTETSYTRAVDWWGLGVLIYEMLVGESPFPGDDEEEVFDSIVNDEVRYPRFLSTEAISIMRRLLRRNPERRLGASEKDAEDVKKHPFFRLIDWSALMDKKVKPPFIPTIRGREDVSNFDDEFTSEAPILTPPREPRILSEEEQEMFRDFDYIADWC
T6 sequence (P07333 20-972): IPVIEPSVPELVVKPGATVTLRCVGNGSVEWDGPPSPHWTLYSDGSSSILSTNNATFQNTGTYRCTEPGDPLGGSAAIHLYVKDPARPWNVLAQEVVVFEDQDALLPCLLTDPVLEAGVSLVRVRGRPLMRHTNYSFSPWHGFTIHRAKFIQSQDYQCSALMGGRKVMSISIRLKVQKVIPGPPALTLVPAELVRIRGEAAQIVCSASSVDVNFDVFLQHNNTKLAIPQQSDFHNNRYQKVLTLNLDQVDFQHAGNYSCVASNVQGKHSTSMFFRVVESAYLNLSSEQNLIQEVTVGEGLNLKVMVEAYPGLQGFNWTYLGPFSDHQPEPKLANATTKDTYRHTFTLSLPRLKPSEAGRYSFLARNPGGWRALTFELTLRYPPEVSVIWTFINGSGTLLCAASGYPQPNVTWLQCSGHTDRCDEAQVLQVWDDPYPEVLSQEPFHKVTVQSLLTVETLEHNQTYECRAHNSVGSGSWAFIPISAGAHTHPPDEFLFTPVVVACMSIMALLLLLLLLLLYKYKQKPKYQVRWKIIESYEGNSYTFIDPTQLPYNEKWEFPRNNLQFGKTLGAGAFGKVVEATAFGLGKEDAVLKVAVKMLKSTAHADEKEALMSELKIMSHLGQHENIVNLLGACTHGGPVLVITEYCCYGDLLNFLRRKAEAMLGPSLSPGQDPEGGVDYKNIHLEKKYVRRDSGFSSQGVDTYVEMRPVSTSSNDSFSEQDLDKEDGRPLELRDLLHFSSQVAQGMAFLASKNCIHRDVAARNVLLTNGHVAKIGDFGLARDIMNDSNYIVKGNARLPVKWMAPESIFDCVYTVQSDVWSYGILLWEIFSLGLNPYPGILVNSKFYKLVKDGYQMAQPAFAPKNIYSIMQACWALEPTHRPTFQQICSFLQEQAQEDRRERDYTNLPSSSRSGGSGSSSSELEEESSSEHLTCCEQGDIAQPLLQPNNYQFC
T12 sequence (P28482 whole entry): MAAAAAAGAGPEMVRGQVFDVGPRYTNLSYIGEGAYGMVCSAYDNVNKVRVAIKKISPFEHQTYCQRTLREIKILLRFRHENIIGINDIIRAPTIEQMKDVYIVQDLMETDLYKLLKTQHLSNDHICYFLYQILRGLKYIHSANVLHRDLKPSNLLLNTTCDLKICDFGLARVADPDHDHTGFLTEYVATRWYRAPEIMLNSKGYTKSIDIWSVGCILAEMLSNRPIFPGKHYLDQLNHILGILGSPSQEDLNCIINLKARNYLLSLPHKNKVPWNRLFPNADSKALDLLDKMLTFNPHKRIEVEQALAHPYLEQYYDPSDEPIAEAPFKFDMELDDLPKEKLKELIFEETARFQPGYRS
T10 sequence (P00533 25-1210): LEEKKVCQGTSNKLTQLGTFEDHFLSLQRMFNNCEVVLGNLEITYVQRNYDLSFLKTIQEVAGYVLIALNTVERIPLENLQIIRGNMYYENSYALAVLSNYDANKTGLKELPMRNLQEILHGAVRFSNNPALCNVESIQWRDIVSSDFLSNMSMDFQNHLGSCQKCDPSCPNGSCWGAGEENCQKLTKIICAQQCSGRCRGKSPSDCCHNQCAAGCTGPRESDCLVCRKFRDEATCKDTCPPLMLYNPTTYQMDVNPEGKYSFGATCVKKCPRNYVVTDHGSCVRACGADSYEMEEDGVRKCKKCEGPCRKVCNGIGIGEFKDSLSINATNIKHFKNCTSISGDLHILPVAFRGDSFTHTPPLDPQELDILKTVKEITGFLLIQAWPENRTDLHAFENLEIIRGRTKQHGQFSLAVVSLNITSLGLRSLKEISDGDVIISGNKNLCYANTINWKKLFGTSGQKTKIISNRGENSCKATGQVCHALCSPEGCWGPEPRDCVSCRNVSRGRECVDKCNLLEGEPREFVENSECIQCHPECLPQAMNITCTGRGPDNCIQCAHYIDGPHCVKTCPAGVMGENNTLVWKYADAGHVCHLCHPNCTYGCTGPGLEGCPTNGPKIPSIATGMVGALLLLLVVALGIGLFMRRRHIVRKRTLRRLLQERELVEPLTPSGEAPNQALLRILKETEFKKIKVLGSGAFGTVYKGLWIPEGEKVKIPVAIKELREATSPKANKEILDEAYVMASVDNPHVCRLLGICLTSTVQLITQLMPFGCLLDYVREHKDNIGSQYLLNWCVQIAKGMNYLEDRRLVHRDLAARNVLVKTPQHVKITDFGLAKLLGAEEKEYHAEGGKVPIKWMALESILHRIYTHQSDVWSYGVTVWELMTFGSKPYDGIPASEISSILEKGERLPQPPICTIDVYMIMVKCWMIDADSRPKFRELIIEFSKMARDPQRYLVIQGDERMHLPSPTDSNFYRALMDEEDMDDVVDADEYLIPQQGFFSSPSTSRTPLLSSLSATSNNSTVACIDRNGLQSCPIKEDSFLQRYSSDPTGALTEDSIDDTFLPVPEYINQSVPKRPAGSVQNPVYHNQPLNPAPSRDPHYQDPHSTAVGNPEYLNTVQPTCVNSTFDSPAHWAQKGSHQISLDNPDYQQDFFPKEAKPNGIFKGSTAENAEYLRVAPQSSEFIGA

CNC(=O)c1ccc2c(c1)C(=O)c1ccc(Nc3ccc(F)c(NC(=O)C4CC4)c3)cc1CC2 [Compound 2015]
remaining activity at 0.2 µM (340 wild-type kinases [1]; 0.2 µM 2015, read-out: CDK18/CycY residual activity): 102%
remaining activity at 1 µM (340 wild-type kinases [1]; 1 µM 2015, read-out: CDK18/CycY residual activity): 92.8%
remaining activity at 0.2 µM (340 wild-type kinases [1]; CDK18/CycY, 0.2 µM, read-out: residual activity): 102%
remaining activity at 1 µM (340 wild-type kinases [1]; CDK18/CycY, 1 µM, read-out: residual activity): 92.8%
remaining activity at 0.2 µM (340 wild-type kinases [2]; 0.2 µM 2015, read-out: PKCepsilon residual activity): 83.1%
remaining activity at 1 µM (340 wild-type kinases [2]; 1 µM 2015, read-out: PKCepsilon residual activity): 90.5%
remaining activity at 0.2 µM (340 wild-type kinases [2]; PKCepsilon, 0.2 µM, read-out: residual activity): 83.1%
remaining activity at 1 µM (340 wild-type kinases [2]; PKCepsilon, 1 µM, read-out: residual activity): 90.5%
remaining activity at 0.2 µM (340 wild-type kinases [3]; 0.2 µM 2015, read-out: MINK1 residual activity): 88.4%
remaining activity at 1 µM (340 wild-type kinases [3]; 1 µM 2015, read-out: MINK1 residual activity): 84.4%
remaining activity at 0.2 µM (340 wild-type kinases [3]; MINK1, 0.2 µM, read-out: residual activity): 88.4%
remaining activity at 1 µM (340 wild-type kinases [3]; MINK1, 1 µM, read-out: residual activity): 84.4%
remaining activity at 0.2 µM (340 wild-type kinases [4]; 0.2 µM 2015, read-out: MLK4 residual activity): 96.4%
remaining activity at 1 µM (340 wild-type kinases [4]; 1 µM 2015, read-out: MLK4 residual activity): 87.1%
remaining activity at 0.2 µM (340 wild-type kinases [4]; MLK4, 0.2 µM, read-out: residual activity): 96.4%
remaining activity at 1 µM (340 wild-type kinases [4]; MLK4, 1 µM, read-out: residual activity): 87.1%
remaining activity at 0.2 µM (340 wild-type kinases [5]; 0.2 µM 2015, read-out: PAK7 residual activity): 97.1%
remaining activity at 1 µM (340 wild-type kinases [5]; 1 µM 2015, read-out: PAK7 residual activity): 84.3%
remaining activity at 0.2 µM (340 wild-type kinases [5]; PAK7, 0.2 µM, read-out: residual activity): 97.1%
remaining activity at 1 µM (340 wild-type kinases [5]; PAK7, 1 µM, read-out: residual activity): 84.3%
remaining activity at 0.2 µM (340 wild-type kinases [6]; 0.2 µM 2015, read-out: CSF1R residual activity): 97.2%
remaining activity at 1 µM (340 wild-type kinases [6]; 1 µM 2015, read-out: CSF1R residual activity): 84%
remaining activity at 0.2 µM (340 wild-type kinases [6]; CSF1R, 0.2 µM, read-out: residual activity): 97.2%
remaining activity at 1 µM (340 wild-type kinases [6]; CSF1R, 1 µM, read-out: residual activity): 84%
remaining activity at 0.2 µM (340 wild-type kinases [7]; 0.2 µM 2015, read-out: PRK2 residual activity): 89.2%
remaining activity at 1 µM (340 wild-type kinases [7]; 1 µM 2015, read-out: PRK2 residual activity): 91.1%
remaining activity at 0.2 µM (340 wild-type kinases [7]; PRK2, 0.2 µM, read-out: residual activity): 89.2%
remaining activity at 1 µM (340 wild-type kinases [7]; PRK2, 1 µM, read-out: residual activity): 91.1%
remaining activity at 0.2 µM (340 wild-type kinases [8]; 0.2 µM 2015, read-out: JNK3 residual activity): 90.9%
remaining activity at 1 µM (340 wild-type kinases [8]; 1 µM 2015, read-out: JNK3 residual activity): 100%
remaining activity at 0.2 µM (340 wild-type kinases [8]; JNK3, 0.2 µM, read-out: residual activity): 90.9%
remaining activity at 1 µM (340 wild-type kinases [8]; JNK3, 1 µM, read-out: residual activity): 100%
remaining activity at 0.2 µM (340 wild-type kinases [9]; 0.2 µM 2015, read-out: p38delta residual activity): 101%
remaining activity at 1 µM (340 wild-type kinases [9]; 1 µM 2015, read-out: p38delta residual activity): 90.6%
remaining activity at 0.2 µM (340 wild-type kinases [9]; p38delta, 0.2 µM, read-out: residual activity): 101%
remaining activity at 1 µM (340 wild-type kinases [9]; p38delta, 1 µM, read-out: residual activity): 90.6%
remaining activity at 0.2 µM (340 wild-type kinases [10]; 0.2 µM 2015, read-out: EGFR residual activity): 108%
remaining activity at 1 µM (340 wild-type kinases [10]; 1 µM 2015, read-out: EGFR residual activity): 96.6%
remaining activity at 0.2 µM (340 wild-type kinases [10]; EGFR, 0.2 µM, read-out: residual activity): 108%
remaining activity at 1 µM (340 wild-type kinases [10]; EGFR, 1 µM, read-out: residual activity): 96.6%
remaining activity at 0.2 µM (340 wild-type kinases [11]; 0.2 µM 2015, read-out: CAMK2A residual activity): 102%
remaining activity at 1 µM (340 wild-type kinases [11]; 1 µM 2015, read-out: CAMK2A residual activity): 96.4%
remaining activity at 1 µM (340 wild-type kinases [11]; CAMK2A, 1 µM, read-out: residual activity): 96.4%
remaining activity at 0.2 µM (340 wild-type kinases [12]; 0.2 µM 2015, read-out: ERK2 residual activity): 99.1%
remaining activity at 1 µM (340 wild-type kinases [12]; 1 µM 2015, read-out: ERK2 residual activity): 90.5%
remaining activity at 0.2 µM (340 wild-type kinases [12]; ERK2, 0.2 µM, read-out: residual activity): 99.1%
remaining activity at 1 µM (340 wild-type kinases [12]; ERK2, 1 µM, read-out: residual activity): 90.5%
remaining activity at 0.2 µM (340 wild-type kinases [13]; 0.2 µM 2015, read-out: FGR residual activity): 101%
remaining activity at 1 µM (340 wild-type kinases [13]; 1 µM 2015, read-out: FGR residual activity): 102%
remaining activity at 0.2 µM (340 wild-type kinases [13]; FGR, 0.2 µM, read-out: residual activity): 101%
remaining activity at 1 µM (340 wild-type kinases [13]; FGR, 1 µM, read-out: residual activity): 102%
remaining activity at 0.2 µM (340 wild-type kinases [14]; 0.2 µM 2015, read-out: JNK1 residual activity): 107%
remaining activity at 1 µM (340 wild-type kinases [14]; 1 µM 2015, read-out: JNK1 residual activity): 94.2%
remaining activity at 0.2 µM (340 wild-type kinases [14]; JNK1, 0.2 µM, read-out: residual activity): 107%
remaining activity at 1 µM (340 wild-type kinases [14]; JNK1, 1 µM, read-out: residual activity): 94.2%
